Laboratory results: patent publication US11135320B2, “Radioligands for pretargeted pet imaging and methods of their therapeutic use” (priority 2015, dated 2021)
Several values for one entry are separate records, joined by “and”; a condition that tells them apart may be missing. Identical values can stand only once.

Assays:
[1] = PET imaging with ^64Cu-labeled tetrazine radioligands in healthy mice; assay type: in vivo, athymic nude mice
Method: All PET imaging experiments were performed on an Inveon PET/CT scanner (Siemens Healthcare Global). Healthy female athymic nude mice (n=4 per radioligand) were administered ^64Cu-Tz-NOTA, ^64Cu-Tz-PEG7-NOTA, or ^64Cu-Tz-SarAr (300-350 μCi in 200 μL 0.9% sterile saline) via intravenous tail vein injection (t=0). Approximately 5 minutes prior to the PET images, mice were anesthetized by inhalation of 2% isoflurane (Baxter Healthcare, Deerfield, Ill.)/oxygen gas mixture and placed on the scanner bed; anesthesia was maintained using 1% isoflurane/gas mixture. Static scans were recorded at various time points after injection with a minimum of 30 million coincident events (10-30 min total scan time). An energy window of 350-700 keV and a coincidence timing window of 6 ns were used. Data were sorted into 2-dimensional histograms by Fourier re-binning, and the images were reconstructed using a two-dimensional ordered subset expectation maximization (2DOSEM) algorithm (16 subsets, 4 iterations) into a 128×128×159 (0.78×0.78×0.80 mm) matrix. The image data was normalized to correct for non-uniformity of response of the PET, dead-time count losses, positron branching ratio, and physical decay to the time of injection but no attenuation, scatter, or partial-volume averaging correction was applied. Activity concentrations (percentage of dose per gram of tissue [% ID/g]) and maximum intensity projections were determined by conversion of the counting rates from the reconstructed images. All of the resulting PET images were analyzed using ASIPro VM™ software.

[2] = Stability of ^64Cu-labeled tetrazines in PBS (pH 7.4) at 37° C.; assay type: physicochemical; details: PBS pH 7.4, 37° C.
Method: (§1) Next, the aqueous and serum stabilities were determined via incubation at 37° C. (Tables 2-3). […] For example, after a 4 h incubation, 77.8±3.5% and 81.2±3.7% of ^64Cu-Tz-PEG7-NOTA and ^64Cu-Tz-SarAr, respectively, remained intact. Importantly, the release of ^64Cu^2+ from the chelators was not observed in any of the trials. Despite the rates of decomposition, the speed of the IEDDA reaction was faster than short blood half-lives of these small molecules; therefore, the radioligands remained functional in vivo.
(§2) ^64Cu-Tz-PEG7-NOTA and ^64Cu-Tz-SarAr (1000 μCi) were incubated on an agitating thermomixer (300 rpm) at 37° C. in 500 μL of either PBS (pH 7.4) or human serum. At each prescribed time-point, 100 μL of the solution was removed and placed into a 1.7 mL microcentrifuge tube. For the PBS samples, the compound was injected directly onto the HPLC and analyzed using a gradient of 5:95 CH3CN:H2O (both with 0.1% TFA) to 95:5 CH3CN:H2O over 15 min. For the serum samples, 100 μL cold CH3CN was added to the serum, and the resultant mixture was vortexed and centrifuged at 10,000 rpm for 10 min. After this, the clear supernatant was removed, moved to a new 1.7 mL microcentrifuge tube, and centrifuged again at 10,000 rpm for 10 min. The clear supernatant from this second spin was then injected into the HPLC and analyzed using a gradient of 5:95 CH3CN:H2O (both with 0.1% TFA) to 95:5 CH3CN:H2O over 15 min. The residual protein from the centrifuge spins was checked for radioactivity, and only minimal residual activity remained (less than 1% of the starting ^64Cu for each ^64Cu-Tz-PEG7-NOTA and ^64Cu-Tz-SarAr). The fraction of intact ^64Cu-Tz-PEG7-NOTA or ^64Cu-Tz-SarAr was determined by integrating the peak corresponding to the compound (tR=9.7 and 8.7 minutes, respectively) and dividing by the integral over the whole HPLC run. Both the injection loop and column were monitored to detect the presence of residual activity. All experiments were performed in triplicate.

[3] = Stability of ^64Cu-labeled tetrazines in human serum at 37° C.; assay type: in vitro ADME
Method: as §1, §2

[4] = Partition coefficient (log D), 1-octanol / PBS; assay type: physicochemical; details: 1-octanol / PBS (pH 7.4)
Method: Once the precursors were made, the tetrazine constructs were then radiolabeled via incubation with [^64Cu]—CuCl2 for 10 minutes at room temperature in 200 mM NH4OAc, pH 5.0 and purified via reverse-phase C18 HPLC (tR=8.7 min for ^64Cu-Tz-SarAr and 9.7 min for ^64Cu-Tz-PEG7NOTA; FIGS. 6-9). In both cases, the identity of the radiolabeled product was confirmed via co-injection of unlabeled ^natCu-Tz-SarAr and ^natCu-Tz-PEG7-NOTA standards. Ultimately, ^64Cu-Tz-PEG7NOTA was prepared in greater than 99% radionuclidic purity, 78±6% decay-corrected isolated yield, and a specific activity of 323±37 mCi/μmol (n=6). Similarly, ^64Cu-Tz-SarAr was synthesized in greater than 99% radionuclidic purity, 79±7% decay-corrected isolated yield, and a specific activity of 310±36 mCi/μmol (n=6). The ^64Cu-Tz-NOTA radioligand was synthesized, radiolabeled, and purified as previously reported by Zeflis et al. J. Nucl. Med. 2013, 54, 1389-1396, which is hereby incorporated by reference in its entirety. In order to probe the influence of the structural changes on solubility, the partition coefficients of the various radioligands were determined using PBS (pH 7.4) and 1-octanol (Table 1). […] For example, the replacement of NOTA with SarAr rendered ^64Cu-Tz-SarAr (log D=−2.08±0.06) more hydrophobic than ^64Cu-Tz-NOTA (log D=−2.54±0.1).
^64Cu-Tz-PEG7-NOTA, ^64Cu-Tz-NOTA, or ^64Cu-Tz-SarAr (1 μCi) was added to a mixture of 3 mL PBS (pH 7.4) and 3 mL 1-octanol. The resulting mixture was then vortexed thoroughly for 10 minutes and subsequently centrifuged at 1,000 rpm for 10 min. 1 mL of each layer (PBS and 1-octanol) was then collected, and the amount of radioactivity in each sample was counted on a gamma counter calibrated for ^64Cu. The partition coefficient (log D) was calculated using the formula: Log D=log10[(countsoctanol)/(countsPBS] All experiments were performed in triplicate. Reaction of ^64Cu-Tz Radioligands with huA33-TCO

SMILES	excretion pathway (PET imaging) [1]	% Intact (PBS) ([2]; 2 h)	% Intact (Serum) ([3]; 2 h)	Log D [4]	% Intact (PBS) ([2]; 4 h) [%]	% Intact (PBS) ([2]; 8 h) [%]	% Intact (Serum) ([3]; 4 h) [%]	% Intact (Serum) ([3]; 8 h) [%]
O=C([O-])CN1CCN(CC(=O)[O-])CC(Cc2ccc(NC(=O)CCCC(=O)NCc3ccc(-c4nncnn4)cc3)cc2)N(CC(=O)[O-])CC1.[64Cu+2] (centres unmarked) [^64Cu-Tz-NOTA]	eliminated somewhat sluggishly through the gastrointestinal pathway	91.6 +/− 1.9%	85.4 +/− 6.6%	−2.54±0.1 and −2.54 +/− 0.10	–	–	–	–
O=C(O)CN1CCN(CC(=O)O)CC(Cc2ccc(NC(=S)NCCOCCOCCOCCOCCOCCOCCOCCNC(=O)CCCC(=O)NCc3ccc(-c4nncnn4)cc3)cc2)N(CC(=O)O)CC1.[64Cu] (centres unmarked) [^64Cu-Tz-PEG7-NOTA]	excretion through both the intestines and the kidneys	87.0±1.3% and 87.0 +/− 1.3%	84.7 +/− 4.8% and 84.7 ± 4.8%	−2.44±0.08 and −2.44 +/− 0.08	83.2±4.6	76.2 ± 2.6	77.8±3.5	64.0 ± 6.5
NC12CNCCNCC(NCc3ccc(CNC(=O)CCCC(=O)NCc4ccc(-c5nncnn5)cc4)cc3)(CNCCNC1)CNCCNC2.[64Cu+2] [^64Cu-Tz-SarAr]	cleared quickly and cleanly through the urinary tract	94.7±0.6% and 94.7 +/− 0.6%	92.0 +/− 2.1% and 92.0 ± 2.1%	−2.08 +/− 0.06	93.3±0.5	89.7 ± 2.3	81.2±3.7	67.7 ± 4.3
